Measurements: US8410165B2, “Aldehyde conjugated flavonoid preparations” (Agency for Science, Technology and Research, priority 2005, dated 2013)

Legend:
Format in all cases: biochemical
[1] = Diphenyl-picryl-hydrazyl (DPPH) scavenging activity; settings: concentration needed to scavenge DPPH by 50%; EGCG moiety concentration for EGCG-containing samples, n = 3
Protocol: Diphenyl-picryl-hydrazyl scavenging activity: Different amounts of a sample were mixed with the chemically stable free radical 1,1-diphenyl-2-picryl-hydrazyl (DPPH) solution and absorbance at 519 nm was continuously recorded for 30 min at 25° C. using a UV-visible spectrophotometer (JASCO V-510 UV/VIS/NIR spectrometer, Japan). All analyses were run in triplicate and the results were averaged.
Diphenyl-picryl-hydrazyl scavenging activity and Superoxide anion scavenging activity: The 1,1-diphenyl-2-picryl-hydrazyl radical (DPPH) assay, which measures hydrogen atom donating activity, provides an evaluation of antioxidant activity due to free radical scavenging. DPPH, a purple-coloured stable free radical, is reduced into the yellow-coloured diphenylpicry hydrazine, as the radical is scavenged by antioxidants through donation of hydrogen. […] The DPPH scavenging activity of samples was expressed by IC50 (the concentration needed to scavenge DPPH by 50%), as shown in Table 4. […] These activities were also much higher than those of commercial antioxidants, vitamin C and dibutylhydroxytoluen (BHT).

[2] = Superoxide anion scavenging activity (xanthine/XO, NBT reduction method); settings: concentration needed to scavenge superoxide anion by 50%; EGCG moiety concentration for EGCG-containing samples, n = 3; read-out: Superoxide radical scavenging activity IC50
Protocol: Superoxide anion scavenging activity: Superoxide anion was generated using xanthine and xanthine oxidase (XO), and measured by the nitroblue tetrazolium (NBT) reduction method. A test sample was mixed in a buffer solution (pH 7.0) containing xanthine and NBT at 25° C. Measurement began with the addition of XO. […] All analyses were run in triplicate and the results were averaged. Superoxide scavenging activity was calculated according to the following formula: […] A mixture of xanthine and XO generates superoxide anion, which reduces nitroblue tetrazolium (NBT) to give the blue chromogen formazan and increases UV absorbance at 560 nm. Compounds capable of scavenging superoxide anion, such as superoxide dismutase (SOD), inhibit NBT reduction. […] Since compounds capable of scavenging superoxide anion can also affect NBT reduction, samples were investigated for their effects on these processes. […] Evaluation of scavenging activity against DPPH and superoxide anion provided direct evidence of the free radical scavenging potential of those compounds.

Xanthine oxidase (XO) = target: T1, Xanthine oxidase (XO) (Bos taurus, UniProt P80457); experiment: Xanthine oxidase inhibitory activity (uric acid formation at 295 nm); settings: for XO inhibition activity: 10 μM of samples
T1 construct: purchased Sigma-Aldrich
T1 sequence (P80457 2-1332 limits assumed): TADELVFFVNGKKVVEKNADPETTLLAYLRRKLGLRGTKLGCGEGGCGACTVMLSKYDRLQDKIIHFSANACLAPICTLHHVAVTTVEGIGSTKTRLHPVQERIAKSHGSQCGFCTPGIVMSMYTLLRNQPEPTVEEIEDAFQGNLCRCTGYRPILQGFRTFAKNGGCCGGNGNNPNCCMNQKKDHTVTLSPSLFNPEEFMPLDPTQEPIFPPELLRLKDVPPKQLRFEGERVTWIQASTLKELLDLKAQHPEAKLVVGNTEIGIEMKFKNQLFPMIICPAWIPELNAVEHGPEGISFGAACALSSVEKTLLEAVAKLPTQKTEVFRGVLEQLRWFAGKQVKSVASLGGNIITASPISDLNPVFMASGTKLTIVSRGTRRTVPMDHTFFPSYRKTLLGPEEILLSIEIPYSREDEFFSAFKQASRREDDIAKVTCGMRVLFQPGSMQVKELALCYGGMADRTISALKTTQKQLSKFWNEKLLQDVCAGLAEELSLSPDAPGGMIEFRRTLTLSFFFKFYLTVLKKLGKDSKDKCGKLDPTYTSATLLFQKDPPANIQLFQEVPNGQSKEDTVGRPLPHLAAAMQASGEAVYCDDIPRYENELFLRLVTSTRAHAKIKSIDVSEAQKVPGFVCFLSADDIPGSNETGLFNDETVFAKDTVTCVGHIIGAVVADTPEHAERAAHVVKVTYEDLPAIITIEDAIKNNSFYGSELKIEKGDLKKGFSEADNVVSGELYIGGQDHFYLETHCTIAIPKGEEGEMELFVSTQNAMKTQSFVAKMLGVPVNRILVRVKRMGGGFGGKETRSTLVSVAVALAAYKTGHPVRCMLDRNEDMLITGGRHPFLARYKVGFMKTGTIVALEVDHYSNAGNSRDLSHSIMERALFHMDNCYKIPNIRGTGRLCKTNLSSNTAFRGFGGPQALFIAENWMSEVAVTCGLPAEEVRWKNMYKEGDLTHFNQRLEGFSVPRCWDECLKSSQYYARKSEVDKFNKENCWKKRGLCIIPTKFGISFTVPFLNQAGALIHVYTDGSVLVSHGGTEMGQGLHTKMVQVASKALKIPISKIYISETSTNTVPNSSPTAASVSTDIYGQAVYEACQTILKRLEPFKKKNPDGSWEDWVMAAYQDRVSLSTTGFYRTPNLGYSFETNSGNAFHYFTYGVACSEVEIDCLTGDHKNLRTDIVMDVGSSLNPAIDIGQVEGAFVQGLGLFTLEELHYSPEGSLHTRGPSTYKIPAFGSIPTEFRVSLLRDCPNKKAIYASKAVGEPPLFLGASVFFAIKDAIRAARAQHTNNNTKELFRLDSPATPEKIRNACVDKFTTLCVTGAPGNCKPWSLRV
Protocol: Xanthine oxidase inhibitory activity: The activity of XO was measured spectrophotometrically by monitoring the formation of uric acid at 295 nm for 30 min using a UV-visible spectrometer. The assay was carried out under the same conditions as the superoxide anion assay, and the percentage activity was calculated.

Urokinase (uPA) = Urokinase (uPA) (Homo sapiens, UniProt P00749); experiment: uPA inhibitory activity (SPECTROZYME UK); settings: over a range of tested concentrations, EGCG-unit concentration (FIG. 8)
Protocol: uPA inhibitory activity: Various amounts of a sample were mixed with uPA in a buffer solution, and incubated for 15 min at 37° C. The mixture solution was added with SPECTROZYME™ and absorbance at 405 nm was recorded for 10 min using a microplate reader.

[3] = target: T2, Xanthine Oxidase from buttermilk (Bos taurus, UniProt P80457); experiment: Xanthine oxidase activity upon complexation with OEGCG and recovery with Triton X-100; settings: highest OEGCG concentration
T2 construct: Xanthine Oxidase from buttermilk, Wako Chemical; purchased Wako Chemical; host or cells: buttermilk
T2 sequence (P80457 whole entry): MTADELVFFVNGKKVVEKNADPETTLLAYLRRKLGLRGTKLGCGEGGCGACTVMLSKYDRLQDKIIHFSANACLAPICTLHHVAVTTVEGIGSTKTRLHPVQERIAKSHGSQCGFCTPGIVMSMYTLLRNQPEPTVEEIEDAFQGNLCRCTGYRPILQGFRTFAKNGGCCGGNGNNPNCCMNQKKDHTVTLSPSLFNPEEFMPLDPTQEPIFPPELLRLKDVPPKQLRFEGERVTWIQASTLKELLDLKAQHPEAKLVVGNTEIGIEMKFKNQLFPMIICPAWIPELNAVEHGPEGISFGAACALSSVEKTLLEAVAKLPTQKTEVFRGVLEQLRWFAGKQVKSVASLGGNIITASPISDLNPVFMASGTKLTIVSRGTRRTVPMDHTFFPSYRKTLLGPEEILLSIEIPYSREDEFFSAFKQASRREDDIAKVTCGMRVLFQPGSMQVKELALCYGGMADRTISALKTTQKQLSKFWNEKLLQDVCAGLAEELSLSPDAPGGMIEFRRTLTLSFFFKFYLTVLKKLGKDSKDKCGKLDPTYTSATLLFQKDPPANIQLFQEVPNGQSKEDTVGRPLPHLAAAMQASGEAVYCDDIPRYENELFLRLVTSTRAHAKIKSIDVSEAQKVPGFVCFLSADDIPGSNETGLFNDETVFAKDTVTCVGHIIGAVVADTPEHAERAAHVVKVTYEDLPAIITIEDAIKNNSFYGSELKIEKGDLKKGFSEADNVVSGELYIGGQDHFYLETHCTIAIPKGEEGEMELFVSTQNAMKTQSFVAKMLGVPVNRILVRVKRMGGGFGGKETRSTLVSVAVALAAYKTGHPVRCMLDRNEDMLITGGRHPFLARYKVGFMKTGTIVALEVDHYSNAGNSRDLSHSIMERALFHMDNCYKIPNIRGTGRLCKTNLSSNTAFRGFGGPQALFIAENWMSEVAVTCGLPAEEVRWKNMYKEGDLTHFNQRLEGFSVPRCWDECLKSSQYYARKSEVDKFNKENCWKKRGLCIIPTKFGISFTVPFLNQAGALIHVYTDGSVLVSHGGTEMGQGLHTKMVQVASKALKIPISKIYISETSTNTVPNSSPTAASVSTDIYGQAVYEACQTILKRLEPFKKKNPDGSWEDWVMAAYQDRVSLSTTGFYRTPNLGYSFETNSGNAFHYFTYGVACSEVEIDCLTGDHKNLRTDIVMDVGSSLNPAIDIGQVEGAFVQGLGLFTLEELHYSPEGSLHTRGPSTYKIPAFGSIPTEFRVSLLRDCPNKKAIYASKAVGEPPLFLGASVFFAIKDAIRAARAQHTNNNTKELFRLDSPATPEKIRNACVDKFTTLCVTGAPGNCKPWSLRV
Protocol: XO activity was measured by determining uric acid production in a UV-vis spectrophotometer at 295 nm. The increase in absorbance due to the conversion of xanthine to uric acid was followed for 3 minutes. […] Activity was measured according to the specified method for each protein. Activity for all proteins is calculated with the following equation: [formula] where ΔAbssample is the change in absorbance over time with the test compound and ΔAbscontrol is the change in absorbance over time without the test compound.

[4] = target: T3, α-Amylase from Apergillus oryzae (Aspergillus oryzae, UniProt P0C1B3); experiment: α-Amylase activity upon complexation with OEGCG and recovery with Triton X-100
T3 construct: α-Amylase from Apergillus oryzae, Fluka; purchased Fluka; host or cells: Aspergillus oryzae
Protocol: α-Amylase from Apergillus oryzae, Fluka. Amylase activity was assayed with an activity kit from Molecular Probes (E-11954) using a fluorescence spectrophotometer with excitation wavelength at 505 nm and emission wavelength at 512 nm. […] Fluorescence was monitored over a period of 3 minutes.
(§1) Activity was measured according to the specified method for each protein.
(§2) Activity for all proteins is calculated with the following equation:
(§3) [formula] where ΔAbssample is the change in absorbance over time with the test compound and ΔAbscontrol is the change in absorbance over time without the test compound.

[5] = target: T4, Catalase from bovine liver (Bos taurus, UniProt P00432); experiment: Catalase activity upon complexation with OEGCG and recovery with Triton X-100
T4 construct: Catalase from bovine liver, Sigma Chemical; purchased Sigma Chemical; host or cells: bovine liver
T4 sequence (P00432 2-527 limits assumed): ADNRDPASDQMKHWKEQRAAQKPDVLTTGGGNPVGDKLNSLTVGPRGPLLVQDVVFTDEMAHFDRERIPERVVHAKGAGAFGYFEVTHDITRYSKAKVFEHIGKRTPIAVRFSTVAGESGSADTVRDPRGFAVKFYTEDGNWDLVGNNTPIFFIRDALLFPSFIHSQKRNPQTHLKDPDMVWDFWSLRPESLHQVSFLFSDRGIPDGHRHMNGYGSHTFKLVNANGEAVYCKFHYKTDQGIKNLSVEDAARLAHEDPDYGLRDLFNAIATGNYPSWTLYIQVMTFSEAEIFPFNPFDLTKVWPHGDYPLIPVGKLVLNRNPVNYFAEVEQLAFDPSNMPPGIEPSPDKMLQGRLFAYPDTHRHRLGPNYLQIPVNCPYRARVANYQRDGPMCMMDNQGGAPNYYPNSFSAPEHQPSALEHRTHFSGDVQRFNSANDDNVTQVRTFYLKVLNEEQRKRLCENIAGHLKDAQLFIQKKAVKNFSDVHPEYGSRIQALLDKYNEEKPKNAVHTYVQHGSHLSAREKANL
Protocol: Catalase from bovine liver, Sigma Chemical. Catalase activity was measured by the disappearance of H2O2, followed at 240 nm in a UV-Vis spectrophotometer over a period of 200s. […] The reaction was started by adding 0.507 M H2O2 and mixing for 25 s.
as §1, §2, §3

Lysozyme from egg white = target: T5, Lysozyme from egg white (Gallus gallus, UniProt P00698); experiment: Lysozyme activity upon complexation with OEGCG and recovery with Triton X-100
T5 construct: Lysozyme from egg white, Sigma Chemical; purchased Sigma Chemical; host or cells: egg white
T5 sequence (P00698 19-147): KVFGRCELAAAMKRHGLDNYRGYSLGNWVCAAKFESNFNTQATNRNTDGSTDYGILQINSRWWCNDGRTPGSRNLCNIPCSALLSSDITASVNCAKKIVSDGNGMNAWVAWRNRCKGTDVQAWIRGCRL
Protocol: Lysozyme from egg white, Sigma Chemical. Activity of lysozyme was determined spectrophotometically at 450 nm by the decrease in turbidity over time due to the cleavage of glucosidic linkages of Micrococcus lysodeikticus. […] To start the reaction, 0.25 mg/mL of Micrococcus lysodeikticus was added to the solution.
as §1, §2, §3

[6] = ABTS radical scavenging activity; settings: dissociation (FIG. 27)
Protocol: Radical scavenging activity: ABTS^.+ was prepared by mixing a 7 mM ABTS stock solution with 2.45 mM potassium persulfate ((1/1, v/v). The decolorization reaction was initiated by adding ABTS^.+ to samples in a phosphate buffer and immediately measured at 734 nm using a UV-Vis spectrophotometer (Hitachi, Japan).

[7] = addition of TX-100 after complexation with OEGCG

| Compound | IC50 [1] | IC50 [2] | XO inhibition activity (Xanthine oxidase (XO)) | uPA inhibition activity (Urokinase (uPA)) | other results |
| --- | --- | --- | --- | --- | --- |
| Cc1cc(C(C)(C)C)c(O)c(C(C)(C)C)c1 [BHT, dibutylhydroxytoluen, reference compound] | > 250 µM | > 250 µM |  |  |  |
| O=C1O[C@H]([C@@H](O)CO)C(O)=C1O [Vitamin C, reference compound] | 44.7 ± 0.4 µM | 30.3 ± 0.3 µM |  |  |  |
| Oc1ncnc2[nH]ncc12 [allopurinol, reference compound] |  |  |  |  | inhibition at 10 µM (Xanthine oxidase (XO); read-out: XO inhibition activity): 22.6% |
| (−)-Epigallocatechin gallate [EGCG, reference compound] | 7.3 ± 0.6 µM | 2.9 ± 0.3 µM | 1.2% | very low uPA inhibition activity | XO inhibition (Xanthine oxidase (XO); over the range of concentrations tested): less than 5% |
| PEG-epigallocatechin gallate conjugate [PEG-EGCG] | 6.2 ± 0.3 µM | 0.9 ± 0.1 µM | 30.7% | higher inhibition activities |  |
| PEG-oligomeric epigallocatechin gallate [PEG-OEGCG] | 3.8 ± 0.8 µM | 0.4 ± 0.1 µM | 100% | higher inhibition activities |  |
| oligomeric epigallocatechin gallate [OEGCG] | 4.9 ± 0.5 µM | 1.1 ± 0.2 µM | 89.3% | higher inhibition activities | suppression of total XO activity [3]: 75%; maximum inhibition of α-amylase [4]: about 94%; initial α-amylase activity inhibition ([4]; OEGCG below a ratio of one): 70%; α-amylase activity restored, % of the initial protein activity [4, 7]: approximately 100%; decrease in α-amylase activity ([4]; five fold increase in OEGCG concentration from a ratio of 1 to 5): 20%; further decrease of catalase activity ([5]; five fold increase in OEGCG concentration beyond OEGCG to protein ratio of 1): about 6%; inhibition of catalase ([5]; highest OEGCG to protein ratio): 30%; inhibition of lysozyme (Lysozyme from egg white; above an OEGCG ratio of 2): All activity was suppressed; lysozyme activity restored, % of the initial protein activity (Lysozyme from egg white; [7]): approximately 100%; ABTS radical scavenging activity upon complexation with proteins and dissociation [6]: suppressed by complexation with proteins was restored upon dissociation |
